According to patent US11814652B2, “Pluripotent stem cell differentiation-promoting agent” (Oriental Yeast Co., Ltd., priority 2018, dated 2023):

What was measured:
[1] = test system: human iPS cell strain 201B7; assay: RT-PCR of marker expression in iPS cells cultured in E6 differentiation-inducing medium with β-NMN (Example 1); assay type: cell-based; conditions: 3rd and 7th day after seeding, β-NMN 0.25 or 1 mM in E6 medium, compared to cells cultured in the absence of β-NMN
Method: The effect of β-NMN on the differentiation of three germ layers of the iPS cells was examined. As the iPS cells, the human iPS cell strain 201B7 was used. A U-bottom shape 96-well plate “Nunclon Sphera 96 U-well plate” (manufactured by Thermo Fisher Scientific) was seeded with iPS cells at 10,000 cells/well, and cultured in an E6 culture medium (manufactured by Gibco) as a differentiation-inducing culture medium adjusted to have a final concentration of β-NMN of 0, 0.25 or 1 mM, and a final concentration of Rock inhibitor of 10 μM for 1 day. The Rock inhibitor was added to suppress Rho-dependent apoptosis. On the 1st and 5th days after seeding, the culture medium was replaced with a culture medium obtained by removing the Rock inhibitor from the culture medium at the time of seeding. Cells on the 3rd and 7th days after seeding were sampled and subjected to RT-PCR to investigate the expression levels of undifferentiated markers (Nanog, Sox2, Oct3/4, Lin28a, Klf4), endoderm markers (Sox17, AFP), mesoderm markers (MSX1, Brachyury) and ectodermal markers (PAX6). […] The expression level of each marker was evaluated by PCR using the obtained cDNA. […]

[2] = test system: iPS cells 253G1 strain; assay: Flow cytometry of Sox17 after endodermal differentiation-induction following undifferentiated culture with β-NMN (Example 5); assay type: cell-based; conditions: β-NMN 0.25 or 1 mM during undifferentiated culture, then endodermal differentiation-induction; 5th or 7th day; versus absence of β-NMN
Method: The effects of culturing in the presence of β-NMN before induction of differentiation on the endodermal differentiation-induction of iPS cells was examined. As the iPS cells, the 253G1 strain was used. iPS cells seeded on a culture dish coated with Matrigel (manufactured by Corning Incorporated) according to the manufacturer's protocol were cultured in a culture medium prepared by adjusting a culture medium for iPS cells to have a final concentration of β-NMN 0, 0.25 or 1 mM, and a final concentration of Rock inhibitor of 10 μM for 1 day. From the 1st day after seeding, the culture medium was replaced every day with a culture medium obtained by removing the Rock inhibitor from the culture medium at the time of seeding. When the confluent reached 70 to 80%, the iPS cells were detached from the culture dish and collected. The collected iPS cells were seeded at 3×10^5 cells/well in a 24-well plate coated with Matrigel (manufactured by Corning Incorporated) according to the manufacturer's protocol. […] After washing the stained cells, a flow cytometer “FACS caliber” (manufactured by Becton, Dickinson and Company) was used to analyze the fluorescence intensity of the anti-Sox17 antibody and the fluorescence intensity of the anti-FoxA2 antibody in each sample. […]

[3] = test system: iPS cells 201B7 strain; assay: Flow cytometry of Nestin/PAX6 after ectodermal differentiation-induction following undifferentiated culture with β-NMN (Example 7); assay type: cell-based, human; conditions: β-NMN 0.25 or 1 mM before ectodermal differentiation-induction; 7th or 9th day; versus absence of β-NMN
Method: The effects of culturing in the presence of β-NMN before induction of differentiation on the ectodermal differentiation-induction of iPS cells was examined. As the iPS cells, the 201B7 strain was used. The iPS cells were cultured in a culture dish in the same manner as in Example 5, and when the confluent reached 70 to 80%, the iPS cells were detached from the culture dish and collected. The collected iPS cells were seeded at 3×10^5 cells/well in a 24-well plate coated with Matrigel (manufactured by Corning Incorporated) according to the manufacturer's protocol. The cells in the 24-well plate were cultured for 1 day in a culture medium prepared by removing β-NMN from the culture medium when culturing in the culture dish and adjusting to have a final concentration of Rock inhibitor of 10 μM. From the 1st day after seeding, the medium was replaced every day with a culture medium for ectodermal differentiation-induction of “STEMdiff Trilineage Differentiation kit” (manufactured by STEMCELL Technologies). In the same manner as in Example 2, the cells sampled on the 7th or 9th day after seeding were stained with a fluorescently labeled anti-Nestin antibody and a fluorescently labeled anti-PAX6 antibody, and a flow cytometer was used to analyze the fluorescence intensity of the anti-Nestin antibody and the fluorescence intensity of the anti-PAX6 antibody in each sample. […]

## NC(=O)c1ccc[n+]([C@@H]2O[C@H](COP(=O)([O-])O)[C@@H](O)[C@H]2O)c1 [β-NMN, β-nicotinamide mononucleotide]
[1]
  expression level of each undifferentiated marker (Nanog, Sox2, Oct3/4, Lin28a, Klf4): decreased
  expression level of the differentiated marker (Sox17, AFP, MSX1, Brachyury, PAX6): increased
[2]
  ratio of Sox17-positive cells: higher
[3]
  ratio of Nestin-positive PAX6-positive cells: no clear difference
